Data taken from US5462861A, “Method for improving enzyme activities with noble gases” (American Air Liquide, Chicago Research Center, priority 1993, dated 1995).
Entries after “also recorded” stand apart in the source; their conditions may differ.

How the values were obtained:
Phosphoglucose isomerase = Phosphoglucose isomerase (Homo sapiens, UniProt P06744); experiment: Phosphoglucose isomerase activity under gas; assay type: biochemical; conditions: 25° C., FIG. 35
Procedure: (§1) Solution preparation: Optimized w/v solutions are prepared by diluting the enzyme (units/ml) and the substrate (μg/ml) in appropriate buffer (optimized pH and molarity for enzymes). The solutions are used for gas experiments at once to avoid loss of activity. Various enzyme and substrate concentrations and inhibitors may be employed. Physical parameters are varied as required.
(§2) Preparation of samples: Cuvets are filled with 2 ml of substrate solution by means of a gas-tight syringe. Gas-tight serum vials are filled with enzyme and solvent. Sufficient gas is consecutively bubbled in the cuvets and serum vials, with a 1-hr wait between injections to maximize equilibration of gas. All syringes and dead spaces are purged before filling with the appropriate gas. The amount of gas used has been measured sufficient to saturate the solution required.
(§3) Spectrophotometric time-drive, reaction rate, and kinetic analyses: cuvets and serum vials are saturated with gas 40 minutes before the run. A gas-filled syringe is used to retrieve 0.5 ml of enzyme solution to avoid air contact. The 0.5 ml syringe injections of enzyme are made simultaneously to effect a common starting time to for the samples. 7 gases (air, O2, N2, Ne, Ar, Kr, Xe) are run at various temperatures each (from 0° to 60° ). Changes in the rate or final equilibrium of the reaction versus ambient air are recorded. Comparison is also made with added oxygen, and with deoxygenation. Some samples are also prepared under pressure.
(§4) In a complete experiment, an enzyme at optimal pH and buffering salt concentration is reacted with 5 substrate concentrations in solution with noble gas at 1 atm. […] Controls are also run after evacuation of solution by vacuum. The reaction is monitored colorimetrically in a scanning spectrophotometer in real time, and the signals are treated mathematically to obtain rate and yield differences. Sample numbers are constant and sufficient to ensure significance of results. All parameters are independently controlled and measured, and more complex experiments are occasionally carried out.

tyrosinase [1] = experiment: Oxygen addition experiment, tyrosinase; assay type: biochemical
Procedure: as §4

α-D-glucosidase = α-D-glucosidase activity under gas; assay type: biochemical; conditions: FIG. 31
Procedure: Solution preparation: Optimized w/v solutions are prepared by diluting the enzyme (units/ml) and the substrate (μg/ml) in appropriate buffer (optimized pH and molarity for enzymes). The solutions are used for gas experiments at once to avoid loss of activity. Various enzyme and substrate concentrations and inhibitors may be employed. Physical parameters are varied as required. […] Gas-tight serum vials are filled with enzyme and solvent. Sufficient gas is consecutively bubbled in the cuvets and serum vials, with a 1-hr wait between injections to maximize equilibration of gas. All syringes and dead spaces are purged before filling with the appropriate gas. The amount of gas used has been measured sufficient to saturate the solution required. Spectrophotometric time-drive, reaction rate, and kinetic analyses: cuvets and serum vials are saturated with gas 40 minutes before the run. A gas-filled syringe is used to retrieve 0.5 ml of enzyme solution to avoid air contact. […] Changes in the rate or final equilibrium of the reaction versus ambient air are recorded. Comparison is also made with added oxygen, and with deoxygenation. Some samples are also prepared under pressure.

glucosidase = test system: glucosidase
Procedure: as §4

Tyrosinase [2] = experiment: Tyrosinase-L-tyrosine reaction, solution saturated with gas; assay type: biochemical, Mushroom
Procedure: as §1, §2, §3
1. Solution preparation: 10% w/v solutions are prepared by diluting the enzyme (units/ml) and the substrate (μg/ml) in Sodium Phosphate buffer (pH 6.85, optimized pH for enzymes). The solutions are stored in refrigerator (0°-5° C.) and used for gas experiments within 2 or 3 days to avoid loss of activity.
6. Preparation of run samples: Acrylic cuvets are filled with 2 ml of substrate solution by means of a gas tight syringe. Gastight serum vials are filled with enzyme. 3×10 cc of gas are consecutively bubbled in the cuvets and serum vials, with a […] between injections. This represents a 10× displacement of dead volume while maximizing equilibration of gas. All syringes and dead spaces are purged before filling with the appropriate gas. After the third 10 cc injection, the cuvets and serum vials are left overnight under two 10 cc syringes filled with the appropriate gas in refrigerator at 0°-5° C.
8. Spectrophotometric runs: The cuvets and serum vials are filled with 10 cc of gas 40 min before the run. A gas-filled syringe is used to retrieve 0.5 ml of enzyme solution to avoid air contact. The 0.5 ml syringe injections of enzyme are made simultaneously to effect a common starting time t0 for the samples. Seven gases (air, O2, N2, Ne, Ar, Kr, Xe) are run at five temperatures each (15° C., 20° C., 25° C., 30° C., 35° C.). Changes in the rate or final equilibrium of the reaction versus ambient air are recorded.
The optimal conditions are [E]/[S] (100 μg/ml)/(100 μg/ml), the changes in absorbance being observed at 305 nm.
3×10 cc of gas are bubbled in the silicone-sealed cuvets and serum vials (T-3754, T-7755), with an interval of 20 min (at 0°-5°C.) between each gas injection.
a. The silicone-sealed cuvets are removed from the refrigerator 40 min before the experimental run, filled with 10 cc of gas and left at room temperature (26° C.) under two 10 cc syringes.
The 0.5 ml syringe injections of enzyme are made simultaneously to effect a common starting time t0 for the samples.
200 points, 18 s intervals 1 hr run

[3] = test system: phenylalanine ammonia lyase; experiment: Phenylalanine ammonia lyase activity under gas; assay type: biochemical; conditions: FIG. 32
Procedure: as §1, §2, §3, §4

particulate sialidase = conditions: Sandhoff et al, FEBS Letters 1976; cited from earlier work
[4] = Schreiner; independent of oxygen partial pressure; cited from earlier work

Q: What does the source list for `O=O` [oxygen, reference compound]?
A: effect on phosphoglucose isomerase (Phosphoglucose isomerase): inhibition; effect of oxygen on tyrosinase activity (tyrosinase [1]; addition of a small amount oxygen): enhanced tyrosinase activity slightly; maximum increase in activity of tyrosinase (tyrosinase [1]; addition of oxygen to air): 6%; effect on α-D-glucosidase (α-D-glucosidase): enhancement; effect of adding oxygen to glucosidase reactions (glucosidase): no observed effect; effect on tyrosinase-L-tyrosine reaction (Tyrosinase [2]; 15° C.): approximately the same effect; effect on tyrosinase-L-tyrosine reaction (Tyrosinase [2]; 20° C.): only a moderate inhibitory effect; also recorded: little effect; also recorded: no enhancing effect; also recorded: does not enhance; effect on tyrosinase-L-tyrosine reaction (Tyrosinase [2]; 30° C.): inhibitory effect; also recorded: no longer enhances; also recorded: no enhancing effect; temperature dependence of the effect on tyrosinase (Tyrosinase [2]; various temperatures (15-35° C.)): curves obtained with oxygen instead of air are identical; also recorded: saturates at 30 °C; effect on phenylalanine ammonia-lyase [3]: enhancement

Q: Which “effect on activity of particulate sialidase” value (particulate sialidase) does the source give for `[N-]=[N+]=O` [nitrous oxide] here?
A: enhance the activity

Q: And the “inhibition per atmosphere of added gas” value [4]?
A: 1.9 % inhibition per atmosphere

Q: With `FS(F)(F)(F)(F)F` [SF6, sulfur hexafluoride, reference compound] as the compound, how does the “effect on α-D-glucosidase” value (α-D-glucosidase) read?
A: enhancement

Q: With `FC(F)(F)C(Cl)Br` (centres unmarked) [halothane] as the compound, how does the “effect on activity of particulate sialidase” value (particulate sialidase) read?
A: enhance the activity
